Reference: the NIST ThermoML archive (doi:10.1016/j.jct.2014.12.011)

Assay: mn = molality of the nth substance listed, in mol/kg
Settings: 100 kPa, Liquid, Alternating current cell with electrodes

CCCCCCCC(=O)[O-].[Na+] [sodium octanoate] + O
electrical conductivity [S/m]
Settings | 278.15 K | 288.15 K | 298.15 K | 308.15 K | 318.15 K | 328.15 K
m1 = 0.04715 | 0.168 | 0.223 | 0.284 | 0.35 | 0.421 | 0.494
m1 = 0.0899 | 0.299 | 0.398 | 0.508 | 0.627 | 0.754 | 0.885
m1 = 0.132 | 0.416 | 0.555 | 0.709 | 0.876 | 1.06 | 1.242
m1 = 0.1699 | 0.5102 | 0.6723 | 0.856 | 1.06 | 1.28 | 1.522
m1 = 0.2149 | 0.606 | 0.797 | 1.02 | 1.27 | 1.538 | 1.845
m1 = 0.2635 | 0.6914 | 0.924 | 1.18 | 1.47 | 1.88 | 2.213
m1 = 0.3059 | – | 0.976 | 1.29 | 1.742 | 2.106 | 2.49
m1 = 0.3464 | – | 1.18 | 1.536 | 1.913 | 2.314 | 2.734
m1 = 0.3898 | – | 1.29 | 1.67 | 2.09 | 2.526 | 2.99
m1 = 0.4368 | 1.015 | 1.4 | 1.811 | 2.26 | 2.74 | 3.25
m1 = 0.4813 | 1.09 | 1.49 | 1.934 | 2.42 | 2.938 | 3.48
m1 = 0.5288 | 1.16 | 1.58 | 2.06 | 2.58 | 3.138 | 3.719
m1 = 0.5785 | 1.224 | 1.68 | 2.19 | 2.75 | 3.34 | 3.96
m1 = 0.63 | 1.29 | 1.77 | 2.317 | 2.912 | 3.545 | 4.205
m1 = 0.6829 | 1.35 | 1.87 | 2.45 | 3.08 | 3.75 | 4.448
m1 = 0.7337 | 1.412 | 1.96 | 2.57 | 3.236 | 3.94 | 4.68
